This note sets out measurements from the supplement of paper PMC4649846.

Molecules are shown by their SMILES.

The test system of assay [1] is MDA-MB-231. The note with it: incubation time: 72 h. The method, boiled down: (§1)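 MDA-MB-231 cells were transfected with siRNA against BRCA1 or with non-targeting control siRNA, and a day later were seeded at 4000 cells per well into 384-well plates containing compounds at 5 concentrations. Plates were kept for 72 h at 37 °C and 5% CO2, after which viability was measured by CellTiter-Blue fluorescence. Logistic dose–response fits in Dotmatics Studies gave the IC50 and the drug sensitivity score, the latter being curve area relative to a reference area and normalised by log of top response.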

For assay [2], the system named is MDA-MB-231. Description: drug sensitivity score (DSS); higher = more sensitive; extreme values may be limits of the assay. The note with it: incubation time: 72 h. The method, boiled down: as §1
[3] abbreviates: siRNA: siControl (non-targeting).

`CC[C@@]1(O)C(=O)OCc2c1cc1n(c2=O)Cc2cc3ccccc3nc2-1` [Camptothecin]: the figures for the “IC50 of cell viability” value in the assay with MDA-MB-231 [1] (siRNA: siBRCA1) and in the assay on MDA-MB-231 [1] (setting [3]) were 45.6 nM and 328 nM, respectively. For the same molecule, the drug sensitivity score in the assay with MDA-MB-231 [2] (siRNA: siBRCA1) was 16.9; in the assay with MDA-MB-231 [2] (setting [3]), 10.9.
The like results for `COc1cc2ncnc(Nc3ccc(F)c(Cl)c3)c2cc1OCCCN1CCOCC1` [Gefitinib] were, in that order, above 4170 nM, above 4170 nM, 0 and 0.
For `CCNC(=O)c1noc(-c2cc(C(C)C)c(O)cc2O)c1-c1ccc(CN2CCOCC2)cc1` [NVP-AUY922] the same measures were 46.8 nM, 26.6 nM, 19.6 and 23.
With `CS(=O)(=O)CCNCc1ccc(-c2ccc3ncnc(Nc4ccc(OCc5cccc(F)c5)c(Cl)c4)c3c2)o1` [Lapatinib], the entries for the “IC50 of cell viability” value in the assay on MDA-MB-231 [1] (siRNA: siBRCA1) and in the assay on MDA-MB-231 [1] (setting [3]) were 1150 nM and above 4170 nM, respectively. The figures for the drug sensitivity score in the assay with MDA-MB-231 [2] (siRNA: siBRCA1) and with MDA-MB-231 [2] (setting [3]) were 4.84 and 0, respectively.
Regarding `C[C@]12CC[C@H](O)CC1=CC[C@@H]1[C@@H]2CC[C@]2(C)C(c3cccnc3)=CC[C@@H]12` [Abiraterone], the “IC50 of cell viability” value in the assay with MDA-MB-231 [1] (siRNA: siBRCA1) and in the assay with MDA-MB-231 [1] (setting [3]) was above 4170 nM in each case. For the same molecule, the drug sensitivity score in the assay with MDA-MB-231 [2] (siRNA: siBRCA1) and in the assay on MDA-MB-231 [2] (setting [3]) was 0 in each case.
As for `CC(=O)O[C@H]1C(=O)[C@@]2(C)[C@H]([C@H](OC(=O)c3ccccc3)[C@]3(O)C[C@H](OC(=O)[C@H](O)[C@@H](NC(=O)c4ccccc4)c4ccccc4)C(C)=C1C3(C)C)[C@]1(OC(C)=O)CO[C@@H]1C[C@@H]2O` [Paclitaxel], the “IC50 of cell viability” value in the assay with MDA-MB-231 [1] (siRNA: siBRCA1) turned out to be 6.6 nM; in the assay on MDA-MB-231 [1] (setting [3]) it was 11.2 nM. In addition, the drug sensitivity score in the assay on MDA-MB-231 [2] (siRNA: siBRCA1) stood at 29.8; in the assay on MDA-MB-231 [2] (setting [3]), 27.2.
With `Cc1cn(-c2cc(NC(=O)c3ccc(C)c(Nc4nccc(-c5cccnc5)n4)c3)cc(C(F)(F)F)c2)cn1` [Nilotinib], the “IC50 of cell viability” value in the assay with MDA-MB-231 [1] (siRNA: siBRCA1) and in the assay with MDA-MB-231 [1] (setting [3]) was above 4170 nM throughout. For the same molecule, the drug sensitivity score in the assay on MDA-MB-231 [2] (siRNA: siBRCA1) and in the assay with MDA-MB-231 [2] (setting [3]) was 0 in each case.
Take `O=C1c2c(O)ccc(O)c2C(=O)c2c(NCCNCCO)ccc(NCCNCCO)c21` [Mitoxantrone]: the “IC50 of cell viability” value stood at 143 nM in the assay on MDA-MB-231 [1] (siRNA: siBRCA1) and 134 nM with MDA-MB-231 [1] (setting [3]). Also, the values for the drug sensitivity score in the assay on MDA-MB-231 [2] (siRNA: siBRCA1) and in the assay with MDA-MB-231 [2] (setting [3]) were 19.5 and 19.9, respectively.
For `CC[C@H](CO)Nc1nc(NCc2ccccc2)c2ncn(C(C)C)c2n1` [Roscovitine] the same measures were above 4170 nM, above 4170 nM, 2.37 and 0.
For the molecule `Nc1nc(F)nc2c1ncn2[C@@H]1O[C@H](CO)[C@@H](O)[C@@H]1O` [Fludarabine], the “IC50 of cell viability” value in the assay on MDA-MB-231 [1] (siRNA: siBRCA1) was above 4170 nM; in the assay with MDA-MB-231 [1] (setting [3]), 333 nM. Further, the values for the drug sensitivity score in the assay on MDA-MB-231 [2] (siRNA: siBRCA1) and with MDA-MB-231 [2] (setting [3]) were 0 and 3.39, respectively.
For `CCCCC(=O)OCC(=O)[C@]1(O)Cc2c(O)c3c(c(O)c2[C@@H](O[C@H]2C[C@H](NC(=O)C(F)(F)F)[C@H](O)[C@H](C)O2)C1)C(=O)c1c(OC)cccc1C3=O` [Valrubicin] the same measures were 729 nM, 273 nM, 9.56 and 12.5.
As for `NC(=O)c1ccc(I)c([N+](=O)[O-])c1` [Iniparib], the “IC50 of cell viability” value in the assay on MDA-MB-231 [1] (siRNA: siBRCA1) and with MDA-MB-231 [1] (setting [3]) was above 4170 nM each time. Moreover, the drug sensitivity score with MDA-MB-231 [2] (siRNA: siBRCA1) and in the assay on MDA-MB-231 [2] (setting [3]) was 0 throughout.
As to `C[C@]12O[C@H](C[C@]1(O)CO)n1c3ccccc3c3c4c(c5c6ccccc6n2c5c31)CNC4=O` [Lestaurtinib], the “IC50 of cell viability” value with MDA-MB-231 [1] (siRNA: siBRCA1) stood at 1400 nM; in the assay with MDA-MB-231 [1] (setting [3]), 794 nM. Moreover, the figures for the drug sensitivity score in the assay with MDA-MB-231 [2] (siRNA: siBRCA1) and in the assay on MDA-MB-231 [2] (setting [3]) were 8.59 and 11.3, respectively.
In the case of `Nc1cccc2c1CN(C1CCC(=O)NC1=O)C2=O` (stereo not drawn) [Lenalidomide], the “IC50 of cell viability” value in the assay with MDA-MB-231 [1] (siRNA: siBRCA1) and in the assay with MDA-MB-231 [1] (setting [3]) was above 4170 nM in each case. Besides, the drug sensitivity score in the assay on MDA-MB-231 [2] (siRNA: siBRCA1) and in the assay with MDA-MB-231 [2] (setting [3]) was 0 each time.
On to `Clc1ccc(Nc2nnc(Cc3ccncc3)c3ccccc23)cc1` [Vatalanib], for which the “IC50 of cell viability” value with MDA-MB-231 [1] (siRNA: siBRCA1) and with MDA-MB-231 [1] (setting [3]) was above 4170 nM in each case. The drug sensitivity score with MDA-MB-231 [2] (siRNA: siBRCA1) and in the assay with MDA-MB-231 [2] (setting [3]) was 0 in each case.
`Cn1cnc2c(F)c(Nc3ccc(Br)cc3Cl)c(C(=O)NOCCO)cc21` [Selumetinib]: the “IC50 of cell viability” value in the assay on MDA-MB-231 [1] (siRNA: siBRCA1) amounted to 610 nM; in the assay on MDA-MB-231 [1] (setting [3]) it was 297 nM. In addition, the results for the drug sensitivity score in the assay on MDA-MB-231 [2] (siRNA: siBRCA1) and in the assay with MDA-MB-231 [2] (setting [3]) were 10.3 and 10.7, respectively.
The like results for `CN(C)C[C@@H]1CCn2cc(c3ccccc32)C2=C(C(=O)NC2=O)c2cn(c3ccccc23)CCO1` were, in that order, 2720 nM, 3770 nM, 5.43 and 4.41.
